Assay results: patent US20130296432A1, “BENZOIC ACID-ENRICHED PLANT EXTRACTS AND USE THEREOF” (EPC (BEIJING) NATURAL PRODUCTS CO., LTD., priority 2012, published 2013)

System: Aspergillus niger
Test: Bacteria inhibiting effect, dilution-plate method (colony count)
Format: cell-based
Details: 27° C., 72 h
Method: • 1. […] Dilution-plate method The preservatives were dissolved with sterilized water and diluted to the concentrations in Table 1. 1 ml of each sample was added into a sterilized Petri dish, and then 1 ml bacterial suspension was added into each dish. The sample and the bacterial suspension were well mixed in the dish and 20 ml sterilized culture medium was added into the dish at ≦45° C., such that the final concentration of the preservatives is as described in Table 1. After solidification, the dish was incubated in a constant temperature incubator at 27° C. for 72 h, and the number of the colony was then counted.

[1] = final concentration of the preservative 0.01 % (extract calculated as benzoic acid)
[2] = final concentration of the preservative 0.02 % (extract calculated as benzoic acid)
[3] = final concentration of the preservative 0.04 % (extract calculated as benzoic acid)

SMILES	Inhibition [1] [%]	colony number [1] [cfu/dish]	Inhibition [2] [%]	colony number [2] [cfu/dish]	Inhibition [3] [%]	colony number [3] [cfu/dish]
O=C(O)c1ccccc1 [Benzoic acid]	0	49	40	32	62	20
C/C=C/C=C/C(=O)O [Sorbic acid]	0	50	38	33		
